Results reported in the supplement of paper PMC11451515.

System: P12-Ichikawa
Experiment: cell viability relative to DMSO control; higher = less cytotoxic
Conditions: 48 h
Procedure, shortened: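 Library compounds in DMSO were pin-dosed in an 11-point threefold series (47 μM to 0.79 nM) onto leukemia cells in 1536-well plates (5 μl). Plates held 500 cells/well of NOMO1 or SEM or 1000 cells/well of P12-Ichikawa, each adapted for at least four passages in each medium. Luminescence was read with CellTiter-Glo One after 48 h at 37°C. Viability means the per-plate percentage relative to DMSO wells, using cell-free wells as background.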

[1] = HPLM + 10% dialyzed FBS, 0.000781 µM
[2] = HPLM + 10% dialyzed FBS, 0.00234 µM
[3] = HPLM + 10% dialyzed FBS, 0.00702 µM
[4] = HPLM + 10% dialyzed FBS, 0.0211 µM
[5] = HPLM + 10% dialyzed FBS, 0.0632 µM
[6] = HPLM + 10% dialyzed FBS, 0.19 µM
[7] = HPLM + 10% dialyzed FBS, 0.569 µM
[8] = HPLM + 10% dialyzed FBS, 1.71 µM
[9] = HPLM + 10% dialyzed FBS, 5.12 µM
[10] = HPLM + 10% dialyzed FBS, 15.4 µM
[11] = HPLM + 10% dialyzed FBS, 46.1 µM
[12] = RPMI 5 mM glucose + 10% FBS, 0.000781 µM
[13] = RPMI 5 mM glucose + 10% FBS, 0.00234 µM
[14] = RPMI 5 mM glucose + 10% FBS, 0.00702 µM
[15] = RPMI 5 mM glucose + 10% FBS, 0.0211 µM
[16] = RPMI 5 mM glucose + 10% FBS, 0.0632 µM
[17] = RPMI 5 mM glucose + 10% FBS, 0.19 µM
[18] = RPMI 5 mM glucose + 10% FBS, 0.569 µM
[19] = RPMI 5 mM glucose + 10% FBS, 1.71 µM
[20] = RPMI 5 mM glucose + 10% FBS, 5.12 µM
[21] = RPMI 5 mM glucose + 10% FBS, 15.4 µM
[22] = RPMI 5 mM glucose + 10% FBS, 46.1 µM
[23] = RPMI 5 mM glucose + 10% dialyzed FBS, 0.000781 µM
[24] = RPMI 5 mM glucose + 10% dialyzed FBS, 0.00234 µM
[25] = RPMI 5 mM glucose + 10% dialyzed FBS, 0.00702 µM
[26] = RPMI 5 mM glucose + 10% dialyzed FBS, 0.0211 µM
[27] = RPMI 5 mM glucose + 10% dialyzed FBS, 0.0632 µM
[28] = RPMI 5 mM glucose + 10% dialyzed FBS, 0.19 µM
[29] = RPMI 5 mM glucose + 10% dialyzed FBS, 0.569 µM
[30] = RPMI 5 mM glucose + 10% dialyzed FBS, 1.71 µM
[31] = RPMI 5 mM glucose + 10% dialyzed FBS, 5.12 µM
[32] = RPMI 5 mM glucose + 10% dialyzed FBS, 15.4 µM
[33] = RPMI 5 mM glucose + 10% dialyzed FBS, 46.1 µM

Row | Compound | cell viability [1] [%] | cell viability [2] [%] | cell viability [3] [%] | cell viability [4] [%] | cell viability [5] [%] | cell viability [6] [%] | cell viability [7] [%] | cell viability [8] [%] | cell viability [9] [%] | cell viability [10] [%] | cell viability [11] [%] | cell viability [12] [%] | cell viability [13] [%] | cell viability [14] [%] | cell viability [15] [%] | cell viability [16] [%] | cell viability [17] [%] | cell viability [18] [%] | cell viability [19] [%] | cell viability [20] [%] | cell viability [21] [%] | cell viability [22] [%] | cell viability [23] [%] | cell viability [24] [%] | cell viability [25] [%] | cell viability [26] [%] | cell viability [27] [%] | cell viability [28] [%] | cell viability [29] [%] | cell viability [30] [%] | cell viability [31] [%] | cell viability [32] [%] | cell viability [33] [%]
1 | CC(C)CC(=O)N[C@H](C(=O)N[C@H](C(=O)N[C@@H](CC(C)C)[C@@H](O)CC(=O)N[C@@H](C)C(=O)N[C@@H](CC(C)C)[C@@H](O)CC(=O)O)C(C)C)C(C)C | 103 | 103 | 107 | 108 | 105 | 114 | 118 | 116 | 105 | 111 | 97.9 | 108 | 109 | 121 | 109 | 97.6 | 113 | 105 | 113 | 122 | 103 | 108 | 98.1 | 99.7 | 106 | 102 | 96.6 | 103 | 107 | 111 | 102 | 97.6 | 96
2 | COc1cc(OC)c(/C=C/[S+](=O)([O-])Cc2ccc(OC)c(NCC(=O)[O][Na])c2)c(OC)c1 | 125 | 124 | 123 | 120 | 116 | 87.5 | 18.3 | 13.2 | 12.7 | 10.1 | 9.65 | 124 | 120 | 126 | 104 | 118 | 76.9 | 23.1 | 12.5 | 11.1 | 11.4 | 10.8 | 120 | 122 | 120 | 115 | 116 | 50.1 | 24.6 | 13.8 | 12 | 11.3 | 9.89
3 | O=C(NC[C@H](O)CO)c1ccncc1Nc1ccc(I)cc1F | 100 | 112 | 71.4 | 113 | 107 | 105 | 102 | 102 | 97.5 | 91.4 | 87.5 | 101 | 118 | 66.3 | 106 | 96 | 90.4 | 98.6 | 91.4 | 88.7 | 78.6 | 59.6 | 94.9 | 119 | 73.4 | 118 | 99.5 | 109 | 105 | 104 | 90.2 | 96.6 | 76.5
4 | COc1cc2ncnc(Nc3ccc(F)c(Cl)c3)c2cc1NC(=O)/C=C/CN1CCCCC1 | 109 | 108 | 103 | 106 | 107 | 97.6 | 106 | 90.1 | 85.4 | 79.1 | 67.9 | 106 | 106 | 103 | 101 | 102 | 106 | 102 | 92.6 | 85.7 | 82.9 | 75.2 | 101 | 109 | 94.5 | 109 | 105 | 102 | 104 | 88.4 | 80.9 | 76 | 67.8
5 | COC1=C2OC(=O)\C=C/C2=CC3=C1OC=C3 | 118 | 113 | 115 | 116 | 112 | 107 | 108 | 102 | 99.7 | 61.3 | 84.6 | 118 | 117 | 117 | 111 | 109 | 110 | 113 | 110 | 109 | 55.6 | 86.8 | 115 | 117 | 119 | 125 | 108 | 109 | 105 | 100 | 101 | 60.2 | 74.4
6 | O=C(O)c1ccc2c(c1)nc(Nc1cccc(Cl)c1)c1ccncc12 | 106 | 112 | 104 | 104 | 108 | 109 | 104 | 104 | 94.8 | 71.8 | 83.4 | 112 | 111 | 108 | 98.4 | 108 | 108 | 105 | 100 | 84.4 | 58.9 | 70.2 | 99.4 | 94.2 | 93.8 | 97.4 | 100 | 95.9 | 94.5 | 101 | 77.8 | 51.4 | 73
7 | COc1ncc(-c2ccc3nccc(-c4ccnnc4)c3c2)cc1N[S+](=O)([O-])c1ccc(F)cc1F | 118 | 115 | 115 | 106 | 101 | 95.6 | 95.3 | 74.8 | 35.8 | 17 | 11.3 | 139 | 111 | 91.1 | 91.4 | 83.3 | 77 | 69.9 | 55.9 | 40 | 17.5 | 8.78 | 131 | 113 | 101 | 97.3 | 89 | 90.3 | 80.5 | 61.3 | 47.5 | 13.6 | 9.07
8 | CCOC(=O)\C1=C(/C)N\C2=C(C1C3=CC=C(C=C3)C4=CC=CC=C4)\C(=O)CC(C)(C)C2 (stereo not given) | 119 | 112 | 123 | 110 | 119 | 110 | 109 | 107 | 108 | 108 | 103 | 108 | 104 | 117 | 117 | 115 | 99.8 | 109 | 103 | 102 | 95.3 | 113 | 112 | 118 | 116 | 114 | 111 | 101 | 104 | 101 | 107 | 98.9 | 95.3
9 | CC(C)NC[C@@H](C(=O)N1CCN(c2ncnc3c2[C@H](C)C[C@H]3O)CC1)c1ccc(Cl)cc1 | 118 | 120 | 114 | 109 | 100 | 99.5 | 92.8 | 83 | 67 | 48.2 | 28.1 | 109 | 105 | 111 | 107 | 100 | 85.8 | 71.3 | 65.2 | 52.8 | 44.4 | 33.6 | 112 | 109 | 114 | 115 | 103 | 95.3 | 85.2 | 78.1 | 55.5 | 37.2 | 23.5
10 | Cc1cn(-c2cc(NC(=O)c3ccc(C)c(Nc4nccc(-c5cccnc5)n4)c3)cc(C(F)(F)F)c2)cn1 | 102 | 101 | 108 | 109 | 110 | 107 | 106 | 12 | 13.1 | 9.96 | 10.8 | 112 | 111 | 114 | 117 | 113 | 112 | 110 | 43.6 | 11.4 | 12.1 | 11 | 103 | 113 | 114 | 112 | 115 | 113 | 114 | 23.9 | 24.5 | 26.7 | 22.7
11 | CNC[C@H](O)c1ccc(O)c(O)c1 | 96.9 | 101 | 94.8 | 94.6 | 102 | 93.9 | 90.2 | 90.9 | 91.7 | 85.7 | 85.8 | 102 | 97.3 | 88.6 | 99.3 | 97.9 | 94.9 | 91.7 | 89.5 | 93.5 | 89.6 | 89.9 | 87.9 | 92.6 | 91 | 87.3 | 90.6 | 92.3 | 81.9 | 85.1 | 82 | 78.9 | 78.2
12 | O=C(O[C@H]1C[C@H]2CC[C@@H](C1)[N+]21CCCC1)C(O)(c1ccccc1)c1ccccc1.[Cl-] | 104 | 104 | 112 | 106 | 117 | 105 | 110 | 116 | 107 | 116 | 110 | 107 | 104 | 113 | 116 | 120 | 127 | 127 | 106 | 113 | 115 | 115 | 99.5 | 99.9 | 105 | 106 | 117 | 110 | 104 | 113 | 107 | 103 | 103
13 | CNC(=O)c1ccc(N2C(=S)N(c3ccc(C#N)c(C(F)(F)F)c3)C(=O)C23CCC3)cc1F | 86.5 | 92.3 | 101 | 9.68 | 108 | 101 | 97 | 103 | 103 | 107 | 102 | 88 | 86.8 | 101 | 13.1 | 94.9 | 98 | 102 | 99.6 | 99.3 | 103 | 106 | 75.4 | 87.7 | 88.6 | 24.7 | 97.7 | 96.6 | 92.7 | 91 | 97.8 | 96.7 | 98.5
14 | O=C(Nc1ccccc1-c1cn2c(CN3CCNCC3)csc2n1)c1cnc2ccccc2n1 | 84.5 | 89.8 | 89.3 | 84.4 | 90.1 | 88.3 | 85.3 | 84.5 | 83.9 | 75.3 | 0.861 | 80.4 | 85.3 | 83.6 | 85.2 | 86.5 | 86.1 | 79.8 | 76.2 | 82.9 | 67.9 | 1.29 | 83 | 84 | 80.3 | 80.5 | 78.1 | 87.4 | 78.4 | 78.7 | 77.8 | 69 | 1.1
15 | OC[C@H]1OCC(O1)[N@@]2C=CC(N)=NC2=O (stereo not given in full) | 121 | 118 | 113 | 121 | 112 | 118 | 117 | 107 | 115 | 108 | 115 | 108 | 125 | 117 | 118 | 118 | 117 | 118 | 107 | 104 | 101 | 103 | 116 | 121 | 115 | 109 | 114 | 113 | 109 | 106 | 105 | 104 | 105
